Laboratory results published in patent US10457662B2, “Substituted amides for treating and preventing cancer” (The Regents of the University of Michigan, priority 2015, dated 2019).
Read-outs that look alike come from different tables or passages of the source.

Assays:
Panc-1 = experiment: MTT assay, Panc-1; format: cell-based; settings: Homo sapiens
Description: (§1) Experiments conducted during the course of developing embodiments for the present invention involved performance of a phenotypic screen of a library of 20,000 small-molecules representing five million compounds. […] Subsequently, a lead optimization campaign was performed to synthesize a series of close analogs. Initially, the 50 analogs were tested in three pancreatic cancer cell lines using MTT assay (Table 1).
(§2) For in vitro studies, compounds were dissolved in DMSO at 10 mM as stock solutions and stored at −20° C. For in vivo studies, QN523 was dissolved in a vehicle containing 5% DMSO, 35% propylene glycol and 60% saline, and administered at 100 uL through intraperitoneal injections.

[1] = test system: three pancreatic cancer cell lines; experiment: MTT assay, three pancreatic cancer cell lines; format: cell-based; settings: read-out: Mark: IC50 lower than 1 μM in at least one cell line, Table 1
MiaPaCa-2 = experiment: MTT assay, MiaPaCa-2; settings: Homo sapiens
Description: Cells were treated with QN523 for 1, 4, 8, 24, 48, 72 h and left in culture in fresh media. MTT assay was performed 72 h after initiation of treatment. Data points represent Mean±SD from three independent experiments.
as §1, §2

BxPC-3 = experiment: MTT assay, BxPC-3; format: cell-based; settings: Homo sapiens
Description: as §1, §2

GRP78, CHOP, ATF3, GDF15 = experiment: Western blotting of stress responsive proteins in MiaPaCa-2; format: cell-based
Description: FIG. 11: QN523 induces protein expression of stress markers dose-dependently.
This example describes the validation of biomarkers GDF15, ATF3, DDIT3, HSPA5, WIPI1, GABARAPL1 and MAP1LC3B in pancreatic cancer cell lines. To validate the findings from bioinformatics analysis basing on Bru-seq experiments, the proposed biomarkers were further tested in pancreatic cancer cell lines. […] However, the potency of Sulindac is much lower than that of QN523, with IC50 of 300 μM in MiaPaCa-2.
(§3) In addition, primary antibodies for LC3B, survivin, cyclin D1, Stat3 and phosphorylated Stat3 (Y705) are from Cell Signaling Technology.

[2] = test system: WIPI1, GABARAPL1 and LC3B; experiment: Western blotting of autophagy related proteins in MiaPaCa-2; format: cell-based; settings: for activation of autophagy: at their IC50 values
Description: FIG. 12: QN523 induces protein expression of autophagy markers dose-dependently.
Significant induction of the protein was detected at concentrations as low as 0.25 μM.
as §3

[3] = PANC-1, MTT assay, Mean ± SD, three independent experiments, read-out: IC50 Values Panc-1
[4] = MIA PaCa-2, read-out: IC50 Values MiaPaCa-2
[5] = BXPC-3, MTT assay, Mean ± SD, three independent experiments, read-out: IC50 Values BxPC-3

| SMILES | IC50 (Panc-1; [3]) [nM] | IC50 [1] [nM] | IC50 (MiaPaCa-2; [4]) [nM] | IC50 (BxPC-3; [5]) [nM] | further results |
| --- | --- | --- | --- | --- | --- |
| CC(C)(C)OC(=O)NCCOc1cc(NC(=O)c2cnccn2)c2ncccc2c1 [QN151, (2-{8-[(Pyrazine-2-carbonyl)amino]quinolin-6-yloxy}ethyl)carbamic acid tert-butyl ester] | 9500 ± 500 | < 1000 | 870 ± 150 | 9170 ± 760 | – |
| Cc1cnc(C(=O)Nc2cc(OCCNC(=O)OC(C)(C)C)cc3cccnc23)cn1 [QN152, (2-{8-[(5-Methylpyrazine-2-carbonyl)amino]quinolin-6-yloxy}ethyl)carbamic acid tert-butyl ester] | 2170 ± 760 | < 1000 | 670 ± 120 | 3670 ± 760 | – |
| O=C(Nc1cccc2cccnc12)c1ncccn1 [QN567, Pyrimidine-2-carboxylic acid quinolin-8-ylamide] | – | < 1000 | – | – | IC50 (Panc-1; PANC-1, read-out: IC50 Values Panc-1): > 10000 nM; IC50 (MiaPaCa-2; MIA PaCa-2, read-out: IC50 Values MiaPaCa-2, MTT assay, Mean ± SD, three independent experiments): 330 ± 60 nM; IC50 (BxPC-3; BXPC-3, read-out: IC50 Values BxPC-3): > 10000 nM |
| O=C(Nc1ccc(Br)c2cccnc12)c1cnccn1 [QN618, Pyrazine-2-carboxylic acid (5-bromoquinolin-8-yl)amide] | 7020 ± 2920 | < 1000 | 750 ± 90 | 7510 ± 1320 | – |
| O=C(Nc1cc(F)cc2cccnc12)c1cnccn1 [QN651, Pyrazine-2-carboxylic acid (6-fluoro-quinolin-8-yl)amide] | 670 ± 250 | < 1000 | 130 ± 60 | > 10000 | – |
| Cc1cnc(C(=O)Nc2cc(F)cc3cccnc23)cn1 [QN652, 5-Methylpyrazine-2-carboxylic acid (6-fluoroquinolin-8-yl)amide] | 2120 ± 940 | < 1000 | 310 ± 160 | > 10000 | – |
| O=C(Nc1cc(F)cc2cccnc12)c1ncccn1 [QN658, Pyrimidine-2-carboxylic acid (6-fluoroquinolin-8-yl)amide] | 5330 ± 1530 | < 1000 | 300 ± 100 | > 10000 | – |
| COc1cc(NC(=O)c2cnc(C)cn2)c2ncccc2c1 [QN663, 5-Methylpyrazine-2-carboxylic acid (6-methoxyquinolin-8-yl)amide] | 830 ± 210 | < 1000 | 270 ± 150 | 6700 ± 600 | – |
| O=C(Nc1cc(Cl)cc2cccnc12)c1ncccn1 [QN794, N-(6-Chloroquinolin-8-yl)pyrimidine-2-carboxamide] | 4670 ± 1530 | < 1000 | 800 ± 50 | > 10000 | – |
| CC1=C(CC(=O)O)c2cc(F)ccc2/C1=C\c1ccc([S+](C)[O-])cc1 (stereo not drawn) [Sulindac] | – | – | – | – | protein levels of stress responsive markers HSPA5, DDIT3, ATF3 and GDF15 (GRP78, CHOP, ATF3, GDF15; 72 h, western blotting): induced; IC50 (MiaPaCa-2; MIA PaCa-2, read-out: IC50 in MiaPaCa-2): 300000 nM; autophagy-related markers WIPI1, GABARAPL1 and LC3B ([2]; 72 h treatment, western blotting): Accumulation |
| CN1CCN(CCCN2c3ccccc3Sc3ccc(Cl)cc32)CC1 [prochlorperazine] | – | – | – | – | induction of GRP78 and CHOP (GRP78, CHOP, ATF3, GDF15; tested at IC50 value): most robust induction of GRP78 and CHOP; activation of autophagy [2]: robust activation of autophagy |
| CSc1ccc2c(c1)N(CCC1CCCCN1C)c1ccccc1S2 (stereo not drawn) [thioridazine] | – | – | – | – | activation of autophagy [2]: robust activation of autophagy |
